Where only a bound is given, the exact number is not on record here.

Consider `O=C1CCC(N2Cc3c(OCc4ccc(CN5CCNCC5)cc4)cccc3C2=O)C(=O)N1` (stereo not drawn), for which the melting point was in the range of 196 to 198 °C. As for `COc1ccc2c(C(=S)N(C)CC(=O)O)cccc2c1C(F)(F)C(F)(F)F`, the figure is 164 to 165 °C; as for `NCC(=O)NC(Cc1cccnc1)c1ccccc1` (stereo not drawn), 93.5 to 94.5 °C; as for `COc1ccc([N+](=O)[O-])cc1CNC(C)=O`, 158 to 160 °C. On to `Cc1c(C(F)(F)F)nn(C)c1O`, for which the melting point fell in the range of 148 to 151 °C. The result for `COC(=O)c1cc(NC(C)=O)cc(NC(C)=O)c1` reads 220 to 221 °C. The result for `CC(C)c1nc(-c2ccccc2)n(-c2ccc(F)cc2)c1CO` reads 186 to 188 °C; that for `CN(C)C(=O)CCC(NC(=O)C=Cc1ccco1)C(=O)N(C)C` (stereo not drawn), 178 to 180 °C; that for `O=c1oc(-c2ccc(SC(F)(F)F)cc2)nc2cccc(Cl)c12`, 135 to 140 °C. In turn, `NOC(=O)C(=C(C(=O)C(F)(F)F)c1ccccc1)c1ccccc1` displayed a melting point of 175 °C. For `COC(=O)c1ccc2c(=O)n(CC(C)C)c(CNC(=O)OC(C)(C)C)c(-c3ccccc3F)c2c1`, the melting point was 180 to 181 °C. As for `Fc1ccc(Nc2ncnc3cnc(N4CCN(c5ccncc5)CC4)nc23)cc1Cl`, the figure is 248 to 250 °C. As for `CCCCCc1cc2c(cc1/C=C/c1ccc(C(=O)O)cc1)C(C)(C)CCC2(C)C`, the figure is 173 to 174 °C; as for `CC(C)OCc1nc(C(C)(C)O)c(C(=O)O)n1Cc1ccc(-c2ccccc2-c2nnn[nH]2)cc1`, 153 to 161 °C; as for `Cc1c(C(=O)CCl)c(C)n(C)c1C(=O)c1ccc(Cl)cc1Cl`, 100 to 102 °C. Compound `CCOC(=O)C1(Cl)C(=O)N2CCOc3cc(Cl)cc1c32` (stereo not drawn) yielded a melting point of 147 to 148 °C.

Turning to `COc1cc(Br)c(OC)c2c1C=C([N+](=O)[O-])CC2`, the melting point is 121 to 123 °C.

In the case of `COc1cc(CCCC2SC(=O)NC2=O)ccc1OCc1csc(/C=C/c2ccccc2)n1` (stereo not drawn), the melting point was 161 to 162 °C. As for `O=C(O)c1ccc(-c2cc(=O)n(-c3ccccc3)s2)cc1`, the figure is 260 to 261 °C; as for `CCOC(=O)C(C(=O)OCC)=C1NC(=O)N(c2ccc([N+](=O)[O-])cc2OC)C1=O`, 170 to 172 °C; as for `COc1cc2c(cc1Cl)C(=O)Cc1ccccc1S2`, 171 to 173 °C. For `CC(C)(C)c1cc(C(=O)CBr)cc2c1OCC2(C)C`, the melting point is 54 to 56 °C. The result for `N#CC1=C(Nc2ccc(F)cc2)c2ccccc2CC1` reads 151 to 153 °C; that for `CCOC1CN(Cc2ccc(OC)cc2)Cc2cc(OC)c(O)cc21` (stereo not drawn), 154 to 157 °C. Consider `COCC(=O)N[C@H]1c2ccccc2C[C@@H]1C`, for which the melting point fell in the range of 78 to 79 °C. As for `COc1ccccc1N1CCN([C@@H]2Cc3c(O)ccc(O)c3C[C@H]2O)CC1` (relative stereo), the figure is 222 to 224 °C; as for `COc1cc2c(cc1OC)C(c1ccccc1)N(C(=O)NCCN(C(C)C)C(C)C)CC2` (stereo not drawn), 109 to 110 °C; as for `Nc1ccc(C2=NC(O)C(=O)Nc3ccc(Cl)cc32)cc1` (stereo not drawn), over 350 °C.

Regarding `CCN(C(=O)COC(C)=O)C1=CC(C)(C)CC(C)=C1`, the melting point fell in the range of 38 to 40 °C. As for `Cc1ccccc1NC(=O)CN1CC2CCC(C1)N2S(=O)(=O)c1cccc2nsnc12`, the figure is 169 to 170 °C. As for `CC(C)(C)OC(=O)Nc1cc(N2CCOCC2)c(C#Cc2ccccc2)cc1N`, the figure is 174 to 176 °C. The result for `Cc1nc2cnccc2n1-c1ccc(C2=Cc3nccn3-c3cc(Cl)c(Cl)cc3N2C)cc1` reads 268 to 270 °C.

Turning to `CCC(O)c1ccc(Cl)c2nc3n(c12)CCCN3c1ccc(Cl)cc1C(F)(F)F` (stereo not drawn), the melting point lay within 220 to 222 °C. As for `N#Cc1cc(N)ccc1N1CCC(OC(=O)c2ccccc2)CC1`, the figure is 154 to 155 °C; as for `COc1cc(OC)nc(O[C@@H]2CCCC[C@H]2C(=O)NS(=O)(=O)c2ccccc2)n1` (relative stereo), 175 °C; as for `O=C(O)c1ccc(C(O)(C(F)(F)F)C(F)(F)F)cc1C(=O)O`, 183 to 185 °C. As for `Brc1c(NC2=NCCN2)ccc2ncn(CC3CCCCC3)c12`, the figure is 153 to 155 °C; as for `Cc1cccc2c1NC(=O)C(NC(=O)OCc1ccccc1)N=C2c1ccccc1F` (racemic), 222 to 225 °C. The result for `CCOC(=O)C1=C(C)NC(c2cscn2)=NC1c1ccccc1F` (stereo not drawn) reads 126 to 128 °C; that for `O=c1cc(-c2ccc(O)c(F)c2)oc2ncccc12`, 267 to 268 °C; that for `O=C1CCOc2c(O)cccc21`, 93 to 96 °C.

For `CN(C)c1nc2cc(NC(=O)c3c(C(=O)N4CCC4)cnn3C)ccn2n1`, the melting point was in the range of 240 to 241 °C.

Compound `Cc1c(F)c(N2CCNCC2)c(C)c2c1c(=O)c(C(=O)O)cn2C1CC1` had a melting point of 185 to 187 °C. The result for `COc1ccc(CCNCC(O)C(=O)O)cc1OC` (stereo not drawn) reads 188 °C; that for `CCOCn1nccc1C(O)c1ccc(OC)c(Cl)c1Cl` (stereo not drawn), 155 to 157 °C.

Regarding `COC(=O)OCc1cnc(C)c(OC(=O)OC)c1`, the melting point came out at 65 °C.

For `COc1cc(C(N)=O)c([N+](=O)[O-])cc1OCc1ccccc1`, the melting point lay within 222 to 224 °C. As for `Cc1cc(C)c2ccc(S(=O)(=O)O)nc2n1`, the figure is over 280 °C; as for `CC[C@H](C)[C@H](NS(=O)(=O)c1cccc2ccccc12)C(=O)N[C@H]1CCOC1OC` (stereo partly drawn), 125 to 127 °C; as for `Cc1c(NC(=O)CC(C)(C)C)c(C)c2c(c1-c1cccs1)OCC2c1ccc(C(C)C)cc1` (stereo not drawn), 155 to 156 °C. The result for `Cc1cc(Br)c(Cl)c(Cl)c1N` reads 66 to 68 °C.

`CSC1=NC(=O)C(=C(C)c2cc(C(C)(C)C)c(O)c(C(C)(C)C)c2)S1` displayed a melting point of 206 to 209 °C. As for `O=C(NCc1cccc(C(F)(F)F)c1)c1ccc2n1Cc1ccccc1N(C(=O)CSc1ccc(Br)cc1)C2`, the figure is 102 °C; as for `c1cncc(CCNc2nc(-c3cccs3)ncc2-n2cccn2)c1`, 133 to 134 °C. The result for `O=C(O)CCc1cnoc1-c1ccc(Br)cc1` reads 164 to 165 °C. The result for `CCCCCCCCCCCCCCCCSC1OC(C)C(OC(C)=O)C(OC(C)=O)C1OC(C)=O` (stereo not drawn) reads 49 to 50 °C. With `CC(C)(Cn1c(N)nc2c(N)nc3ccccc3c21)NS(C)(=O)=O`, the melting point was over 230 °C. `O=C1CCCN1C(=O)NCCn1cccn1`: the melting point was 62.5 to 63.5 °C.

`CCc1cc2cc(O)ccc2c(Oc2ccc(/C=C/C(=O)O)cc2)c1-c1ccccc1` returned a melting point of 188 to 190 °C. As for `C=CCC(C(=O)OC)(C(=O)OC)C(Cc1ccccc1N)c1ccc(OC)cc1` (stereo not drawn), the figure is 117 to 118 °C; as for `COc1ccc(-c2nc(C(=O)NCCO)c[nH]2)cc1OC1CCCC1`, 206 to 208 °C; as for `Cc1oc(-c2ccc3ccccc3c2)nc1COc1ccc(CCCCn2cncn2)cc1`, 134 to 135 °C. As for `CCCCCc1nc2c(N)nc3ccccc3c2n1CCCCNC(=O)Nc1ccccc1`, the figure is 159 to 160 °C. The result for `CC1CCN(c2cc(F)cc(C(=O)Nc3ccc(OCc4n[nH]c(=O)n4-c4ccccc4)c4ccccc34)c2)CC1` reads 140 to 143 °C.

The compound `COC(=O)C1=C(O)c2ccc3ccccc3c2S(=O)(=O)N1C` registered a melting point of 229 to 230 °C. The result for `O=C1C=C(c2ccccc2)C(=Nc2ccccc2)N1` reads 180 to 183 °C; that for `CN(C)Cc1cc(C(=O)c2ccccc2)cc(C(C)(C)C)c1O`, 129 °C. Compound `CCCN1N=C2C(=Cc3cccc(C(F)(F)F)c3)CS(=O)(=O)CC2C1c1cccc(C(F)(F)F)c1` (stereo not drawn) displayed a melting point of 190 to 191 °C. Compound `CCNC1CN(c2ccc(CCO[Si](c3ccccc3)(c3ccccc3)C(C)(C)C)cc2)S(=O)(=O)c2sc(S(N)(=O)=O)cc21` (stereo not drawn) registered a melting point of 66 °C.

Consider `O=S(=O)(Nc1ccc2c(OCc3csc(C4COc5ccccc5O4)n3)cccc2c1)C(F)(F)F` (stereo not drawn), for which the melting point was in the range of 183 to 185 °C. The result for `COc1cc(OC)nc(C2OC(=O)c3ncccc32)n1` (stereo not drawn) reads 167 to 168 °C; that for `CCOc1ccc(-c2ccc(C#N)cc2)cc1C=O`, 110 to 121 °C; that for `CC(=O)NNc1ccc([N+](=O)[O-])cn1`, 226 to 227 °C. For the compound `CC(=O)OCC(CCn1cnc2c(Cl)nc(N)nc21)COC(C)=O`, the melting point lay within 135 to 137 °C. As for `CCCN(CCC)C1CCC2=C(CCCC2=NO)C1` (stereo not drawn), the figure is 99 to 102 °C.

`CCCn1nc2c(N)nc3ccccc3c2c1CCN1CCCS1(=O)=O` had a melting point of 201 to 202 °C. `Cn1c(-c2ccccc2)c(CCCl)sc1=S` had a melting point of 116 °C.

The compound `CNc1nc(-c2cccc(C=O)c2)c2cc(OC)c(OC)cc2n1` yielded a melting point of 110 to 112 °C.

For `O=C1C(=Cc2ccc(Cl)cc2)N2CCC1CC2`, the melting point was in the range of 108 to 110 °C. The result for `CCOC(=O)C(c1c[nH]c2cccc(C(=O)OC)c12)C(C)[N+](=O)[O-]` (stereo not drawn) reads 106 to 110 °C; that for `CCOC(=O)Cc1c(C)n(Cc2ccccc2)c2ccc(OCc3nc4ccccc4s3)cc12`, 106 to 107 °C; that for `O=C(C=C(c1ccccc1)c1ccc(Cl)cc1)Nc1ccc(C(=O)O)cc1`, 220 to 223 °C. As for `CCn1c(=S)sc2c(=N)n(NC(=O)c3ccco3)cnc21`, the figure is 226 °C. On to `CC(C)CNC(=O)c1sc(Oc2ccc3c(c2)OCO3)c2c1CCc1cnn(C)c1-2`, for which the melting point was 155 to 157 °C.

Compound `O=[N+]([O-])c1ccc(SC2SCC(O)C(O)C2O)cc1` (stereo not drawn) had a melting point of 168 °C. The result for `N#Cc1cccc(-c2nc(Nc3cnccn3)sc2-c2ccncn2)c1` reads over 280 °C; that for `Fc1cc(C(F)(F)F)ccc1/C=C/c1nc(COc2ccc(-c3nc(Cn4ccnc4)co3)cc2)co1`, 150 to 153 °C. The result for `CCCCc1nc2c(N)nc3ccccc3c2n1CCCCSC` reads 127 to 130 °C.

The record behind these values is a melting point compilation (Tetko et al.; mined from patent text by program, amines drawn as free bases though some values may be those of a salt).
